Laboratory results as given in PMC12128972, “TYRA-300, an FGFR3-selective inhibitor, promotes bone growth in two FGFR3-driven models of chondrodysplasia” (JCI Insight, 2025).

Assays:
[1] = test system: lumbar vertebrae of Fgfr3^Y367C/+ mice; experiment: Fgfr3Y367C/+ mice: lumbar vertebrae and intervertebral discs (calipers, histology); format: in vivo, mouse; conditions: 1.2 mg/kg s.c. daily for 15 days
Method: Individuals with ACH frequently experience back pain and may undergo multiple spinal surgeries throughout their lives ([40]). Kyphosis and scoliosis are common with ACH and are also observed in the Fgfr3^Y367C/+ mouse model ([40]), and Fgfr3 is expressed in the intervertebral discs of Fgfr3^Y367C/+ mice ([28]). To determine how TYRA-300 affects the vertebrae and intervertebral discs, the spine was analyzed in the Fgfr3^Y367C/+ mice treated with TYRA-300 or vehicle.
Whole body x-ray images were taken of all animals by Faxitron specimen radiography MX-20 (Faxitron X-Ray LLC) following terminal sacrifice. The length of the L4–L6 lumbar vertebra segment was also measured for each animal using calipers, and the height of the L5 vertebral body was measured from Alcian blue/Sirius red images. Long bones and the skull were then excised, and their dimensions were measured using calipers (VWRi819-0013, VWR International). The transverse and sagittal diameters of the foramen magnum were also measured using calipers for the Fgfr3^Y367/+ model, and measured using the μCT images for the Fgfr3^N534K/+ model.
(§1) The right femur and lumbar vertebrae segment L4–L6 were collected and fixed in 4% paraformaldehyde, decalcified with ethylenediaminetetraacetic acid (EDTA) 0.5 M (pH 8) for 2 or 3 weeks, and embedded in paraffin. Serial paraffin sections of 5 μm were stained with hematoxylin, eosin, and Safranin O. For immunohistochemistry, sections were labeled with antibodies against collagen type X (BIOCYC ref. [1]-CO097-05-RUO, 1:100 dilution), collagen type I (Novotec, 20151, dilution 1:1,000), pERK (Cell Signaling, 4370S, dilution 1:1,000), and PCNA (Abcam, GR3195972-6, 1:500 dilution) using the Dako Envision Kit. Images were captured with an Olympus PD70-IX2-UCB microscope and CellSens software (Olympus Life Science Solutions). Cells were counted using ImageJ software (NIH, Laboratory for Optical Computational Instrumentation).

[2] = test system: growth plate chondrocytes of Fgfr3^Y367C/+ mice; experiment: Fgfr3Y367C/+ mice: histology and immunohistochemistry of distal femur growth plate (H&E, collagen type X, PCNA, HZC count); format: in vivo, mouse
Method: To understand the effects of TYRA-300 treatment on the growth plate cartilage and chondrocytes and the mechanism through which TYRA-300 increases bone growth, histological analysis of the femurs of Fgfr3^Y367C/+ mice was performed. […] Treatment also facilitated angiogenesis, deposition of bone matrix, and resorption of the cartilage. In addition, the overall structure of the growth plate was more organized after treatment with TYRA-300. […] The organization of the hypertrophic zone, with HZCs organized in columns, appeared similar in TYRA-300–treated Fgfr3^Y367C/+ mice and Fgfr3^+/+ mice. Within the hypertrophic zone of TYRA-300–treated mice, the HZCs were larger than in vehicle-treated mice.
as §1

[3] = test system: FGFR3 N540K; parameters: method as in PMID 39258897; conditions: cited from earlier work
[4] = test system: femurs of Fgfr3^Y367C/+ mice; experiment: Fgfr3Y367C/+ mice: microCT of femurs (SOC bone volume, BMD, BV/TV); format: in vivo, mouse; conditions: 1.2 mg/kg s.c. daily for 15 days
Method: Finally, measurements of trabecular bone quality were performed using μCT imaging of the femurs (Supplemental Figure 2).
Femurs were placed in 70% ethanol at 4°C and measured on the Skyscan-1272 (Bruker) with the following parameters: 60 kV, 166 μA, 0.25 mm aluminum filter. Within the femurs, the trabecular parameters were obtained at 5 μm voxel resolution in a ROI (normalized to 7% of the femur length in size) beginning 255 μm proximal to the distal growth plate for controls, 25 μm for Fgfr3^Y367C/+ + vehicle, and 35 μm for Fgfr3^Y367C/+ + TYRA-300. The BMD and BV/TV of the metaphysis were measured using on a set of sections located within the secondary spongiosa under the growth plate. The measured volume was chosen to be proportional to the femur length (typically 630 μm for control animals and 310 μm for Fgfr3^Y367C/+ + vehicle and 415 μm for Fgfr3^Y367C/+ + TYRA-300.) Scan reconstruction was done using NRecon (v 1.7.4.6). Scan orientation was done using DataViewer (v 1.7.0.1). 3D Analysis for trabecular bone was performed using CT Analyzer (v 1.23.0.2).

[5] = test system: pERK1/2; experiment: Fgfr3N534K/+ mice: histology and pERK1/2 immunohistochemistry of distal femur; format: in vivo, mouse; conditions: 1.8 mg/kg daily for 21 days
Method: To confirm the mechanistic effect of TYRA-300 within the growth plate of treated Fgfr3^N534K/+ mice, immunohistochemical analyses were performed on the distal femurs. In contrast to the ACH model, a larger SOC is visible in the femoral epiphysis of HCH mice ([42]), and the effect of TYRA-300 on SOC formation is not obvious. […] It is well established that the MAPK pathway is the canonical FGFR3 downstream signaling pathway. Here, we confirmed that this pathway is still activated at 24 days of age in the HCH growth plate through immunohistochemical staining of phosphorylated ERK1/2 (pERK), which was positive in hypertrophic chondrocytes (Figure 4G).
as §1, with “Images were captured with an Olympus PD70-IX2-UCB microscope and CellSens software (Olympus Life Science Solutions).” left out

In the case of `C[C@@H](Oc1ccc2[nH]nc(-c3ccc(N4CC5(C4)CN(S(C)(=O)=O)C5)nc3)c2c1)c1c(Cl)cncc1Cl` [TYRA-300], the “height of the vertebral bodies vs vehicle” value [1] is reported as “increased the height of the vertebral bodies”, the “increase in L4-L6 lumbar vertebrae segment length vs vehicle” value [1] is reported as 23.49% and the “shape of the intervertebral disc” value [1] is reported as “decreasing the height and increasing the lateral width of the nucleus pulposus”. The “expression of PCNA in distal femoral growth plate” value ([2]; 1.2 mg/kg s.c. daily for 15 days) was “a more well-defined positive zone within the growth plate”, the “number of HZCs within the ROI vs vehicle” value ([2]; 1.2 mg/kg s.c. daily for 15 days, distal femur) was “significant decrease” and the “type X collagen staining in the HZCs” value ([2]; present study) was “partial restoration”. The “inhibition of FGFR3 N540K relative to wild-type and G380R mutant proteins” value [3] was “lower inhibition”, the “bone volume of the SOC (microCT) vs vehicle” value [4] was “significant increase” and the “increase in bone mineral density (BMD) vs vehicle” value ([4]; femoral metaphyses) was 21.4%. For the same molecule, the “increase in bone volume-to-tissue volume ratio (BV/TV) vs vehicle” value ([4]; femoral metaphyses) was 73.3%, the “overall architecture of the growth plate (H&E and collagen type X)” value [5] was “did not demonstrate significant changes” and the “pERK+ cells per ROI vs vehicle” value ([5]; distal femur growth plate) was “significant decrease”.
